From patent US5017618A, “Labile derivatives of ketone analogs of 3-substituted-1-alkylamino-2-propanols and their use as beta-adrenergic blockers” (priority 1989, dated 1991)

Tests used:
rabbit iris-ciliary body = test: Reduction of ketone in the iris-ciliary body; format: in vivo; settings: 0.5% hydrochloride salt (w/v); 1.0 hour after instillation
Procedure: It was then shown that reduction of 1-(isopropylamino)-3-(1-naphthyloxy)-2-propanone takes place in the iris-ciliary body. The compound was administered to the rabbit eye in propylene glycol/ethanol/pH=5.9 ophthalmic buffer (25:25:50 mixture, v/v) solution (concentration 0.5% hydrochloride salt, w/v). The iris-ciliary body was removed, extracted and analyzed 1.0 hour after the instillation of the compound, as described in the preceding paragraph.

[1] = Spontaneous isomerization of HCl salts of oximes (I'); format: physicochemical; settings: HCl salts in solution
Text: Spontaneous isomerization of HCl salts of compounds of formula (I') was also observed in solution; it was not observed in oxalates or bases of (I'). […] Acid-catalyzed isomerization was in most cases found to result in formation of the opposite isomers in solutions and in suspensions, respectively. In suspension, clearly the less soluble isomer is forming.

rabbit eyes = test: Local action of the drugs on the eyes (irritation, congestion, redness, lacrimation); format: in vivo, rabbit (male New Zealand albino); settings: for ocular irritation: 1% and 2.5%, both eyes, rabbits
[2] = In vivo distribution-metabolism in ocular tissues of rabbits; settings: rabbit, topical or ocular, 1 %
Procedure: (§1) Adult male New Zealand albino rabbits weighing 2.5-3.5 kg were used. Standard doses of 100 μl of 1% solution of the drugs in saline solution were administered topically to both eyes of each rabbit. After appropriate time intervals (30, 60 and 120 minutes), the animals were sacrificed. Aqueous humor was obtained by making a single puncture at the limbus using a 25 g×5/8" needle attached to 1 cm^3 syringe. Then the cornea and the iris-ciliary body were isolated. The tissues were pooled and homogenized using a Tekmar SDT tissuemizer in ice cold perchloric acid (0.05M) which contained 0.05% sodium metabisulfite as antioxidant. Samples were then rehomogenized in CH3 OH to prepare 10% homogenates, transferred to micro-filters and centrifuged for 20 minutes at 10000 r/minute to precipitate proteins. Aqueous humor was analyzed as such without any further dilution. Aliquots of 5-20 μl of the 10% tissue homogenate samples were analyzed by HPLC.

[3] = system: ocular tissues of rabbits; test: as above; settings: for Concentration of propranolol: after topical propranolol.HCl 1a 1%
Procedure: as §1

[4] = in vivo
Procedure: A group of seven adult male Sprague-Dawley rats weighing 150-250 g was used. […] After 1, 3, 5, 20, 40 and 60 minutes, one mL of blood was withdrawn from the jugular vein and dropped immediately into a tared tube containing 1 mL of ice-cold acetonitrile. The tubes were vigorously shaken, centrifuged, decanted and analyzed for propranolol 1a and propranolone oxime 5a by HPLC. Quantitation was done by using a calibration curve obtained by addition of known amounts of propranolol oxime HCl 6a to blood obtained from a control rat pretreated with saline solution.
A high pressure liquid chromatography (HPLC) method was developed for the assay of the β-blockers and their ketoxime analogs in biological fluids. […] An ASI reverse phase chrompack C18 column, operated at ambient temperature, was used for all separation. The mobile phase used for separation of propranolol 1a and propranolone oxime 5a consisted of water (90 mL), 1-heptanesulfonic acid (1g), 0.1M acetic acid (10 mL), 0.1M triethanolamine (100 mL) and methanol (799 mL).

[5] = system: Intraocular Pressure (IOP) of Rabbits; test: Effect on the Intraocular Pressure (IOP) of Rabbits; format: in vivo, rabbit (male New Zealand albino)
Procedure: The animals were kept in individual cages with free access to food and water. Intraocular pressure was measured using a Digilab model 30R pneumatonometer. The pneumatonometer readings were checked at least twice a day using the Digilab calibration verifier. All measurements were obtained from unrestrained, unanesthetized rabbits. One drop of 0.5% propacaine (Ophthetic-Allergen Pharmaceuticals, Inc.) diluted 1:2 with saline was instilled in each eye immediately prior to IOP measurement. Drugs were administered as 1 or 2.5% solution in buffer pH 7.4 or in saline in both eyes of a group of at least four rabbits. Another group of at least three rabbits served as control and was administered the carrier only. […] Values are given as means ± standard error (S.E.) of the mean. The significance of the change was determined using the student's t-test.

[6] = system: IOP of rabbits, treated eye; test: Unilateral administration, IOP of rabbits; format: in vivo, rabbit; settings: 0.5% and 1.0% solution in saline, one eye
Procedure: The animals were kept in individual cages with free access to food and water. Intraocular pressure was measured using a Digilab model 30R pneumatonometer. The pneumatonometer readings were checked at least twice a day using the Digilab calibration verifier. All measurements were obtained from unrestrained, unanesthetized rabbits. One drop of 0.5% propacaine (Ophthetic-Allergen Pharmaceuticals, Inc.) diluted 1:2 with saline was instilled in each eye immediately prior to IOP measurement. Drugs were administered as 1 or 2.5% solution in buffer pH 7.4 or in saline in both eyes of a group of at least four rabbits. Another group of at least three rabbits served as control and was administered the carrier only. IOP was recorded after 30 and 60 minutes and then after 2, 3, 4, 6 and 8 hours following the drug or carrier administration. Values are given as means ± standard error (S.E.) of the mean. The significance of the change was determined using the student's t-test.
The unilateral administration of propranolol oxime hydrochloride 6a was subsequently studied at two different concentrations, 0.5% and 1.0%. Drugs were administered as 0.5% or 1.0% solution in saline in one of the eyes of each animal in a group of five rabbits. The untreated eye of each rabbit served as a control and received vehicle only. IOP was recorded as described above. […]

[7] = system: resting heart rate of rats; test: Effect on resting heart rate in rats; format: in vivo, rat (male Sprague-Dawley); settings: 6 mg/kg i.v. (Example 6)
Procedure: (§2) Groups of seven male Sprague-Dawley rats weighing 150-250 g were used. Each animal was anesthetized with sodium pentobarbital (50 mg/kg) and the jugular vein was cannulated with PE50 tubing. This cannula was subcutaneously threaded around the neck and exteriorized dorsally. The cannula was filled with heparin solution ([…]) and sealed with a solid 22-gauge stylet. Animals were housed in individual stainless steel cages and at least 24 hours were allowed for recovery from the surgery. Food and water were provided ad libitum. On the day of the experiment, the heart rate of each rat was monitored with a plethsmograph and the data recorded on a Physioscribe II recorder. One hour was allowed as an equilibration period before any drugs were administered. Drugs were dissolved in normal saline as 0.3% solution and were administered intravenously at a dose of 6 mg/kg. The resting heart rate was then recorded after 1, 3, 5, 10 and 15 minutes following i.v. injection. […] A control group of seven animals was intravenously administered saline solution and was treated exactly in the same manner as the drug-treated groups. The significance of the difference between the effect of saline solution and the drugs under investigation on the resting heart rate and on isoprenaline tachycardia was analyzed using the student's "t" test. Values are given as mean ±S.E. of the mean. […] (.) carteolol HCl, 1c; .circle. propranolone ketoxime HCl, 6a; (.gradient.) timolone ketoxime oxalate, 6b; (Δ) N-isopropyl timolone ketoxime HCl, 6d; carteolone oxime HCl, 6c; and (---) saline solution. […] Drugs were administered to groups of 5 rats using a stomach tube and the heart rate was recorded for 1 hour. […] A control group of 5 rats was treated exactly in the same manner after the oral administration of the appropriate volume of saline solution.

[8] = system: isoprenaline-induced tachycardia; test: Effect on isoprenaline-induced tachycardia in rats (β-adrenergic antagonist activity); format: in vivo, rat (male Sprague-Dawley); settings: rats; 6 mg/kg i.v.; isoprenaline 50 μg/kg s.c.; FIG. 1
Procedure: as §2

[9] = system: rabbit cornea (intraocular enzymes); format: in vivo; settings: rabbit, in vivo
Procedure: The tissue was homogenized in an alkaline buffer (pH 10.0) to give 10% (w/v) homogenate, and extracted twice with equal volumes of methylene chloride/diethyl ether mixture (1:4, v/v) by shaking for 15 minutes. The organic layer was separated, then re-extractedwith an equal volume of aqueous 0.1M hydrochloric acid solution. The aqueous phase was made alkaline (pH 10.0) and extracted with methylene chloride/diethyl ether, the organic layer was transferred to a deactivated glass vial, and the solvent was evaporated at reduced pressure under nitrogen stream. The residue was dissolved in 0.01M hydrochloric acid solution and analyzed by high-performance liquid chromatography (HPLC). A Supelcosil LC-8-DB analytical column (7.5 cm×4.6 mm i.d., 3 μm particle size) and mobile phase (1.5 mL/min flow rate) consisting of 30% acetonitrile in an aqueous buffer solution of 0.02M monobasic potassium phosphate (adjusted to pH 3.0 with phosphoric acid) and 0.01 (v/v) triethylamine. UV detection at 280 nm was applied. […] The same experiment was carried out by administering 1-(isopropylamino)-3-(2-allylphenoxy)-2-propanone oxime hydrochloride salt in 2% (w/v) aqueous solution. […]

[10] = aqueous humor, Concentration of propranolol
[11] = aqueous humor, Tissue concentration
[12] = cornea, Concentration of propranolol
[13] = iris-ciliary body, Tissue concentration

In the case of `CC(C)NCC(=O)COc1cccc2ccccc12` [1-(isopropylamino)-3-(1-naphthyloxy)-2-propanone], the “enzymatic reduction product in iris-ciliary body” value (rabbit iris-ciliary body) is reported as “The enzymatic reduction product, 1-(isopropylamino)-3-(1-naphthyloxy)-2-propanol, i.e. propranolol, was clearly identified”.

In the case of `Cc1ccc(Cl)c(OCC(CNC(C)(C)C)=NO)c1` [Il], the spontaneous isomerization [1] is reported as “no isomerization of Il was observed”.

For `CC(C)NCC(O)COc1cccc2ccccc12` (stereo not shown) [Propranolol 1a, 1-(isopropylamino)-3-(1-naphthyloxy)-2-propanol], the ocular irritation (rabbit eyes) was “ocular irritation which always accompanied propranolol administration at both dose levels”, the concentration at 0.5 h [2, 10] was 1280 ± 190 ng/g and the concentration at 1 h [2, 10] was 260 ± 80 ng/g. For the same molecule, the concentration at 0.5 h [2, 11] was 40 ± 20 ng/g, the concentration at 1 h [2, 11] was 710 ± 110 ng/g and the concentration at 0.5 h [2, 12] was 47100 ± 5570 ng/g. It also gave a concentration at 1 h [2, 12] of 14500 ± 2970 ng/g, a concentration at 0.5 h ([2]; cornea, Tissue concentration) of 1680 ± 750 ng/g and a concentration at 1 h ([2]; cornea, Tissue concentration) of 1140 ± 290 ng/g. For the same molecule, the concentration at 2 h ([2]; cornea, Tissue concentration) was 1140 ± 220 ng/g, the concentration at 0.5 h ([2]; iris-ciliary body, Concentration of propranolol) was 8050 ± 1470 ng/g and the concentration at 0.5 h [2, 13] was 2110 ± 290 ng/g. For the same molecule, the concentration at 1 h [2, 13] was 1790 ± 200 ng/g, the concentration at 2 h [2, 13] was 430 ± 110 ng/g and the Concentration of propranolol ([3]; aqueous humor, 120 min.) was 0.00 ± 0.00 mcg/g tissue. It also gave a Concentration of propranolol ([3]; cornea, 120 min.) of 0.00 ± 0.00 mcg/g tissue, a Concentration of propranolol ([3]; iris-ciliary body, 60 min.) of 0.00 ± 0.00 mcg/g tissue and a Concentration of propranolol ([3]; iris-ciliary body, 120 min.) of 0.00 ± 0.00 mcg/g tissue. For the same molecule, the Tissue concentration ([3]; after topical propranolone oxime HCl 6a 1%, aqueous humor, 120 min.) was 0.00 ± 0.00 mcg/g tissue, the “detection of propranolol in eye compartments” value ([3]; rabbit, in vivo) was “could be detected in measurable concentrations in the different eye compartments for the first two hours” and the “detection of propranolol in eye tissues” value ([3]; rabbit, in vivo) was “could not be detected in any of the tested eye tissues”. The “detection of propranolol in iris-ciliary body” value ([3]; rabbit, in vivo) was “completely disappeared from the iris-ciliary body” and the “detection of propranolol in rat's blood” value [4] was “not detected in rat's blood”.

In the case of `CC(C)NCC(COc1cccc2ccccc12)=NO.Cl` [Propranolone oxime HCl 6a, 1-(Isopropylamino)-3-(1-naphthyloxy)-2-propanone oxime hydrochloride], the “% change after treatment (IOP)” value ([5]; 1% solution, 30 min.) is reported as -3.23%, the “IOP, treated” value ([5]; 1% solution, 30 min.) is reported as 26.9 ± 0.58 mm/Hg and the “% change after treatment (IOP)” value ([5]; 1% solution, 60 min.) is reported as -11.51%. The “IOP, treated” value ([5]; 1% solution, 60 min.) was 24.0 ± 0.60 mm/Hg, the “% change after treatment (IOP)” value ([5]; 1% solution, 2 hrs.) was -15.82% and the “IOP, treated” value ([5]; 1% solution, 2 hrs.) was 23.4 ± 0.51 mm/Hg. For the same molecule, the “% change after treatment (IOP)” value ([5]; 1% solution, 3 hrs.) was -16.18%, the “IOP, treated” value ([5]; 1% solution, 3 hrs.) was 23.3 ± 0.35 mm/Hg and the “% change after treatment (IOP)” value ([5]; 1% solution, 4 hrs.) was -20.14%. For the same molecule, the “IOP, treated” value ([5]; 1% solution, 4 hrs.) was 22.2 ± 0.42 mm/Hg, the “% change after treatment (IOP)” value ([5]; 1% solution, 6 hrs.) was -7.08% and the “IOP, treated” value ([5]; 1% solution, 6 hrs.) was 25.8 ± 0.56 mm/Hg. For the same molecule, the “% change after treatment (IOP)” value ([5]; 1% solution, 8 hrs.) was “+0.50%”, the “IOP, treated” value ([5]; 1% solution, 8 hrs.) was 27.9 ± 0.62 mm/Hg and the “% change after treatment (IOP)” value ([5]; 1% solution, time zero) was 0.00%. The “IOP, treated” value ([5]; 1% solution, time zero) was 27.8 ± 0.62 mm/Hg, the “% change after treatment (IOP)” value ([5]; 2.5% solution, 30 min.) was “+1.92%” and the “IOP, treated” value ([5]; 2.5% solution, 30 min.) was 26.5 ± 0.63 mm/Hg. For the same molecule, the “% change after treatment (IOP)” value ([5]; 2.5% solution, 60 min.) was -10.00%, the “IOP, treated” value ([5]; 2.5% solution, 60 min.) was 23.4 ± 0.55 mm/Hg and the “% change after treatment (IOP)” value ([5]; 2.5% solution, 2 hrs.) was -13.08%. For the same molecule, the “IOP, treated” value ([5]; 2.5% solution, 2 hrs.) was 22.6 ± 0.43 mm/Hg, the “% change after treatment (IOP)” value ([5]; 2.5% solution, 3 hrs.) was -18.46% and the “IOP, treated” value ([5]; 2.5% solution, 3 hrs.) was 21.2 ± 0.28 mm/Hg. For the same molecule, the “IOP, treated” value ([5]; 2.5% solution, 4 hrs.) was 20.4 ± 0.34 mm/Hg, the “% change after treatment (IOP)” value ([5]; 2.5% solution, 6 hrs.) was -9.23% and the “IOP, treated” value ([5]; 2.5% solution, 6 hrs.) was 23.6 ± 0.48 mm/Hg. For the same molecule, the “% change after treatment (IOP)” value ([5]; 2.5% solution, 8 hrs.) was -0.77%, the “IOP, treated” value ([5]; 2.5% solution, 8 hrs.) was 25.8 ± 0.65 mm/Hg and the “% change after treatment (IOP)” value ([5]; 2.5% solution, time zero) was 0.00%. For the same molecule, the “IOP, treated” value ([5]; 2.5% solution, time zero) was 26.0 ± 0.48 mm/Hg, the “ocular hypotensive activity compared with parent β-blocker” value ([5]; same dose levels, rabbits) was “much more pronounced and prolonged than that of propranolol itself” and the “ocular hypotensive activity (in words)” value ([5]; topical, rabbits, dose levels used) was “has shown the highest activity at both tested concentration levels, 1 and 2.5%”. The “irritant action, unilateral administration” value (rabbit eyes; 0.5% and 1.0% solution in saline, one eye) was “No irritant action was noted”, the ocular irritation (rabbit eyes) was “completely devoid of the ocular irritation” and the “decrease in IOP, unilateral administration” value [6] was “Significant decrease in the IOP was observed at both levels, only in the treated eye”. The “activity on resting heart rate (negative chronotropic action)” value [7] was “highest activity”, the “β-adrenergic antagonist activity against isoprenaline-tachycardia” value [8] was “most effective” and the “metabolites identified in cornea” value [9] was “Peaks were identified as the E- and Z-isomers of the ketoxime administered, as the corresponding ketone 1-(isopropylamino)-3-(naphthyloxy)-2-propanone, and as the β-adrenergic antagonist 1-(isopropylamino)-3-(naphthyloxy)-2-propanol(propranol)”.
